Source: patent publication US20240216395A1, “19-NOR C3,3-DISUBSTITUTED C21 -N-PYRAZOLYL STEROID FOR USE IN TREATING MAJOR DEPRESSIVE DISORDER AND […]” (priority 2021, published 2024)
Several values for one entry are separate records, joined by “and”; a condition that tells them apart may be missing. Identical values can stand only once.

Test system: adult subjects with major depressive disorder (MDD)
Assay: Phase 3 placebo-controlled study of Compound (1) 50 mg QD for 14 days in MDD (NCT04442490): efficacy scales
Assay type: in vivo, human
Details: for Day 15 HAMD-17 improvement maintained on average: Day 15 HAMD-17 responders; for Day 15 MADRS improvement maintained on average: Day 15 MADRS responders
Text: Title of Study: A Phase 3, Multicenter, Double-Blind, Randomized, Placebo-Controlled Study Evaluating the Efficacy of Compound (1) in the Treatment of Adult Subjects with Major Depressive Disorder
This was a randomized, double-blind, parallel-group, placebo-controlled study in subjects with MDD. The diagnosis of MDD was made according to Structured Clinical Interview for Diagnostic and DSM-5 Clinical Trial Version (SCID-5-CT) performed by a qualified healthcare professional.
Eligible subjects were stratified based on use of antidepressant treatment (current/stable or not treated/withdrawn ≥60 days) and randomized within each stratum to one of 2 treatment groups (Compound (1)—50 mg or matching placebo) in a 1:1 ratio. Subjects self-administered study drug once daily at approximately 8 PM with fat-containing food (e.g., within 1 hour of an evening meal which contains fat or with a fat-containing snack), on an outpatient basis, for 14 days. Subjects returned to the study center during the treatment and follow-up periods as outlined in Table 1.
Subjects self-administered Compound (1) (50 mg or 40 mg [for dose adjustments only as permitted]) or matching placebo orally once daily at approximately 8 PM with food for 14 days. The 50-mg and 40-mg doses was administered as 2 capsules per dose (50 mg, administered as one 30 mg-capsule and one 20-mg capsule, and 40-mg, administered as two 20-mg capsules). Placebo was also administered as 2 capsules to maintain the blind.
The estimand for the primary efficacy analysis was the mean change from baseline in HAM-D total score at Day 15. This was analyzed using a mixed effects model for repeated measures (MMRM); the model included treatment, baseline HAM-D total score, stratification factor, assessment time point, and time point-by-treatment as explanatory variables. All explanatory variables were treated as fixed effects. All post-baseline time points were included in the model. The main comparison was between Compound (1) and placebo at the 15-day time point. Model-based point estimates (e.g., least squares [LS] means, 95% confidence intervals, and p-values) were reported where applicable. An unstructured covariance structure was used to model the within-subject errors. If there was a convergence issue with the unstructured covariance model, Toeplitz, or Autoregressive (1) [AR(1)] covariance structure was used, following this sequence until convergence was achieved. […] When the covariance structure was not UN, the sandwich estimator for the variance covariance matrix was derived, using the EMPIRICAL option in the PROC MIXED statement in SAS.
Similar to those methods described above for the primary endpoint, an MMRM was used for the analysis of the change from baseline in other time points in HAM-D total score, MADRS total score, HAM-A total score, SF-36v2 score, PHQ-9 score, and selected individual items and/or subscale scores in HAM-D for change from baseline.
Generalized estimating equation (GEE) methods were used for the analysis of HAM-D Response (defined as ≥50% reduction from baseline in HAM-D total score) and HAM-D Remission (defined as HAM-D total score of ≤7.0). GEE models included terms for treatment, baseline score, stratification factor, assessment time point, and time point-by-treatment as explanatory variables. The comparison of interest was the difference between Compound (1) and matching placebo at the 15-day time point. Model-based point estimates (e.g., odds ratios), 95% confidence intervals, and p-values were reported.
A GEE method was also used for the analysis of CGI-I Response including terms for treatment, baseline CGI-S score, stratification factor, assessment time point, and time point-by-treatment as explanatory variables.
Compound (1) is an investigational two-week, once-daily oral drug for MDD that represents a potential new class of drug for the management of this common but serious mental health disorder. […]

C[C@@]1(O)CC[C@H]2[C@H](CC[C@@H]3[C@@H]2CC[C@]2(C)[C@@H](C(=O)Cn4cc(C#N)cn4)CC[C@@H]32)C1 [Compound (1), 1-(2-((3R,5R,8R,9R,10S,13S,14S,17S)-3-hydroxy-3,13-dimethylhexadecahydro-1H-cyclopenta[a]phenanthren-17-yl)-2-oxoethyl)-1H-pyrazole-4-carbonitrile]
HAMD-17 Remission odds ratio (95% CI) vs placebo (ADT=No, Day 3): 2.4 (0.91, 6.58) | HAMD-17 Response odds ratio (95% CI) vs placebo (ADT=No, Day 3): 2.3 (1.36, 3.79) | HAMD-17 Remission odds ratio (95% CI) vs placebo (ADT=No, Day 8): 2.1 (1.14, 3.91) | HAMD-17 Response odds ratio (95% CI) vs placebo (ADT=No, Day 8): 1.7 (1.08, 2.58) | HAMD-17 Remission odds ratio (95% CI) vs placebo (ADT=No, Day 12): 1.5 (0.92, 2.44) | HAMD-17 Response odds ratio (95% CI) vs placebo (ADT=No, Day 12): 1.5 (1.02, 2.35) | HAMD-17 Remission odds ratio (95% CI) vs placebo (ADT=No, Day 15): 1.1 (0.70, 1.76) | HAMD-17 Response (ADT=No, Day 15): 55.5 n/N (%) | HAMD-17 Response odds ratio (95% CI) vs placebo (ADT=No, Day 15): 1.4 (0.92, 2.12) | HAMD-17 Remission odds ratio (95% CI) vs placebo (ADT=No, Day 21): 1.0 (0.62, 1.65) | HAMD-17 Response odds ratio (95% CI) vs placebo (ADT=No, Day 21): 1.1 (0.73, 1.70) | HAMD-17 Remission odds ratio (95% CI) vs placebo (ADT=No, Day 28): 0.86 (0.52, 1.41) | HAMD-17 Response odds ratio (95% CI) vs placebo (ADT=No, Day 28): 1.0 (0.65, 1.55) | HAMD-17 Remission odds ratio (95% CI) vs placebo (ADT=No, Day 35): 1.1 (0.66, 1.74) | HAMD-17 Response odds ratio (95% CI) vs placebo (ADT=No, Day 35): 1.1 (0.72, 1.70) | HAMD-17 Remission odds ratio (95% CI) vs placebo (ADT=No, Day 42): 1.0 (0.61, 1.55) | HAMD-17 Response odds ratio (95% CI) vs placebo (ADT=No, Day 42): 1.2 (0.81, 1.90) | HAMD-17 Response odds ratio (95% CI) vs placebo (ADT=Yes, Day 3): 1.9 (0.87, 3.98) | HAMD-17 Response odds ratio (95% CI) vs placebo (ADT=Yes, Day 8): 1.9 (1.01, 3.73) | HAMD-17 Response odds ratio (95% CI) vs placebo (ADT=Yes, Day 12): 1.9 (0.98, 3.58) | HAMD-17 Response (ADT=Yes, Day 15): 57.3 n/N (%) | HAMD-17 Response odds ratio (95% CI) vs placebo (ADT=Yes, Day 15): 1.4 (0.74, 2.71) | HAMD-17 Response odds ratio (95% CI) vs placebo (ADT=Yes, Day 21): 1.8 (0.95, 3.53) | HAMD-17 Response odds ratio (95% CI) vs placebo (ADT=Yes, Day 28): 1.4 (0.72, 2.64) | HAMD-17 Response odds ratio (95% CI) vs placebo (ADT=Yes, Day 35): 1.4 (0.76, 2.75) | HAMD-17 Response odds ratio (95% CI) vs placebo (ADT=Yes, Day 42): 1.7 (0.91, 3.34) | CGI-Improvement Response odds ratio vs placebo (Day 3): 1.8 (0.0032) | CGI-Severity LS mean TRT diff vs placebo (Day 3): −0.4 (<0.0001) | HAMD-17 total score LS mean (SE) CFB (Day 3): −9.8 (0.38) | HAMD-17 total score LS mean TRT diff vs placebo (Day 3): −3.0 (<0.0001) points | CGI-Improvement Response odds ratio vs placebo (Day 8): 1.9 (0.0005) | CGI-Severity LS mean TRT diff vs placebo (Day 8): −0.4 (0.0001) | HAM-A total score LS mean (SE) CFB (Day 8): −8.7 (0.40) | HAMD-17 total score LS mean (SE) CFB (Day 8): −12.0 (0.45) | MADRS total score LSM (SE) CFB (Day 8): −14.6 (0.69) | CGI-Improvement Response odds ratio vs placebo (Day 12): 1.6 (0.0101) | CGI-Severity LS mean TRT diff vs placebo (Day 12): −0.3 (0.0014) | CGI-Improvement Response odds ratio vs placebo (Day 15): 1.5 (0.0191) | HAM-A total score LS mean (SE) CFB (Day 15): −10.4 (0.43) | HAMD-17 Anxiety subscale LSM difference vs placebo (Day 15): −0.9 points | HAMD-17 Bech-6 subscale LSM difference vs placebo (Day 15): −3.2 points | HAMD-17 Core Depression subscale LSM difference vs placebo (Day 15): −2.0 points | HAMD-17 Maier subscale LSM difference vs placebo (Day 15): −3.0 points | HAMD-17 early insomnia item mean reduction from baseline (Day 15): −1.0 | HAMD-17 late insomnia item mean reduction from baseline (Day 15): −0.8 | HAMD-17 middle insomnia item mean reduction from baseline (Day 15): −1.2 | HAMD-17 total score LS mean (SE) CFB (Day 15): −14.1 (0.51) | MADRS Response (≥50% reduction) rate (Day 15): 51.6% | MADRS total score LS mean TRT diff vs placebo (Day 15): −2.4 points and −2.4 (0.0238) points | SF-36v2 Bodily Pain (BP) CFB (Day 15): 5.26 | SF-36v2 General Health (GH) CFB (Day 15): 4.51 | SF-36v2 Mental Health (MH) CFB (Day 15): 14.45 | SF-36v2 Physical-Functioning (PF) CFB (Day 15): 3.41 | SF-36v2 Role-Emotional (RE) CFB (Day 15): 14.19 | SF-36v2 Role-Physical (RP) CFB (Day 15): 3.45 | SF-36v2 Social-Functioning (SF) CFB (Day 15): 12.89 | SF-36v2 Vitality (V) CFB (Day 15): 13.12 | SF-36v2 least-squares mean vitality score increase versus placebo (Day 15): 3.1 | HAMD-17 total score LS mean TRT diff vs placebo (Day 15 (primary endpoint)): −1.7 points and −1.7 (0.0141) points | HAMD-17 LSM treatment difference vs placebo, subgroup (Day 15, ADT use No (monotherapy)): −1.98 | HAMD-17 LSM treatment difference vs placebo, subgroup (Day 15, ADT use Yes (combination)): −1.21 | HAMD-17 LSM treatment difference vs placebo, subgroup (Day 15, age 18-24 years): −1.67 | HAMD-17 LSM treatment difference vs placebo, subgroup (Day 15, age 25-50 years): −1.96 | HAMD-17 LSM treatment difference vs placebo, subgroup (Day 15, age 51-64 years): −1.18 | HAMD-17 LSM treatment difference vs placebo, subgroup (Day 15, baseline BMI 18.5-24.9 kg/m^2): −1.02 | HAMD-17 LSM treatment difference vs placebo, subgroup (Day 15, baseline BMI 25-29.9 kg/m^2): −3.94 | HAMD-17 LSM treatment difference vs placebo, subgroup (Day 15, baseline BMI ≥30 kg/m^2): −1.04 | HAMD-17 LSM treatment difference vs placebo, subgroup (Day 15, baseline HAMD-17TS <26): −1.25 | HAMD-17 LSM treatment difference vs placebo, subgroup (Day 15, baseline HAMD-17TS ≥26): −1.91 | HAMD-17 LSM treatment difference vs placebo, subgroup (Day 15, female): −1.58 | HAMD-17 LSM treatment difference vs placebo, subgroup (Day 15, male): −1.81 | HAMD-17 LSM treatment difference vs placebo, subgroup (Day 15, race Black): −2.20 | HAMD-17 LSM treatment difference vs placebo, subgroup (Day 15, race Other): −4.22 | HAMD-17 LSM treatment difference vs placebo, subgroup (Day 15, race White): −1.47 | Day 15 HAMD-17 improvement maintained on average (Day 28): 81.7% | Day 15 HAMD-17 improvement maintained on average (Day 42): 86.1% | Day 15 MADRS improvement maintained on average (Day 28): 85.2% | Day 15 MADRS improvement maintained on average (Day 42): 87.6% | Patients retaining ≥65% of Day 15 HAMD-17 improvement (Day 21): 81.0% | MADRS total score LS mean TRT diff vs placebo (Day 28): −1.5 | MADRS total score LSM (SE) CFB (Day 28): −16.4 (0.80) | HAMD-17 total score LS mean (SE) CFB (Day 42): −13.5 (0.55) | HAMD-17 total score LS mean TRT diff vs placebo (Day 42): −0.9 | MADRS total score LS mean TRT diff vs placebo (Day 42): −1.3 | MADRS total score LSM (SE) CFB (Day 42): −17.5 (0.83) | Patients retaining ≥65% of Day 15 HAMD-17 improvement (Day 42): 75.4% and 74.9% | HAMD-17 Remission (HAMD-17≤7) rate (overall, Day 3): 7.6% | HAMD-17 Remission odds ratio vs placebo (overall, Day 3): 3.57 | HAMD-17 Response (≥50% reduction) rate (overall, Day 3): 29.3% | HAMD-17 Response odds ratio vs placebo (overall, Day 3): 2.14 | HAMD-17 Response (≥50% reduction) rate (overall, Day 15): 56.0% | HAMD-17 Response odds ratio vs placebo (overall, Day 15): 1.40
